This is an account of results in patent publication US20150368261A1, “CONJUGATES AND SMALL MOLECULES WHICH INTERACT WITH THE CD16A RECEPTOR” (BIOINTEGRATOR LIMITED LIABILITY COMPANY, priority 2013, published 2015).

pKd: −log10 of the molar value.

The target of the assay is CD16a receptor (Homo sapiens, UniProt P08637). Nature of the assay: Enzyme immunoassay (ELISA) for binding of proteins and conjugates with CD16a receptor. The settings on record: Table 2, interferon alfa and its conjugate (FIG. 17); read-out: Activity (Kd) towards CD16a receptor. On the procedure:
Determination of conjugate activity towards CD16a receptor. The experiment uses standard materials and equipment for enzyme immunoassay. Into wells of a 96-well plate CD16a was sorbed from a solution of 3.3 μg/ml in PBS in a volume of 75 μl/well. Sorption was carried out at 4° C. during 16 h. CD16a Solution was removed from the plate, wells were filled in with 2% solution of bovine serum albumin (BSA) in PBS-p (150 μl/well). Plates were incubated at 37° C. for 2 h and three times washed with PBS-p (each time by 300 μl/well). Then the wells were filled with solutions of the conjugates in PBSP, 50 μl/well in dilutions from 0.25 to 256 μg/ml. To each dilution of the conjugate three wells corresponded in the plate. In order to control non-specific sorption of samples some wells were filled with […] BSA solution. The plate was incubated 1 h at 37° C. in a shaker for ELISA (rotation speed was 180 rpm). The plate was washed five times with 300 μl/well of PBS-p and filled with a solution of a protein modified with horseradish peroxidase (by 75 μl/well in the working dilution, which is given in the description of immunoconjugate). The plate was incubated for 30 minutes, washed five times with 300 μl/well of PBS-p and filled with a solution of TMB (100 μl/well). […] The optical density in the plate wells was measured at 450 nm at room temperature. […]

Chain of CD16a receptor (P08637 17-254): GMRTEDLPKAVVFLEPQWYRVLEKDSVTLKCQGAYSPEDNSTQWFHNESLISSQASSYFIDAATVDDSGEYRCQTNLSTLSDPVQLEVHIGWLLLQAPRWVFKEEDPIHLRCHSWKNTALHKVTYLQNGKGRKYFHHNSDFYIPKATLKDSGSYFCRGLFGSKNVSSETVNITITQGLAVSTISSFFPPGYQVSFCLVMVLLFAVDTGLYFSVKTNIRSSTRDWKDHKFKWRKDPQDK

interferon alfa: the pKd is 6.64.
